Measured values from patent US20040038369A1, “Airway-specific trypsin-like enzymes and method of using the same” (priority 2000, published 2004).

Test system: Muc5AC mRNA in NCI-H292 cells
Experiment: Muc5AC mRNA expression in NCI-H292 by real time PCR
Format: cell-based, human
Conditions: HAST 300 mU/mL, 24 hours
Experimental: NCI-H292 cells (purchased from ATCC) were suspended in 10% FCS-containing RPMI-1640 (produced by Gibco Corp.), sowed on a 96 well plate (produced by Falcon Corp.) in a density of 6.0×10^4 cells/cm^2, cultured for 72 hours, subjected to the replacement of the culture solution by RPMI-1640 containing 0.1% of BSA, and further cultured for 24 hours.
Before added to the cells, leupeptin in various concentrations was reacted with 300 mU/mL of HAST on ice for 30 minutes, and further heated at 37° C. Then, the culture solution in the wells was wholly exchanged by the culture medium containing the HAST or leupeptin to start the treatment, and the treatment was carried out for 24 hours. HAST (300 mU/mL) thermally treated at 99° C. for 10 minutes as a control, EGF alone (1 ng/mL), and a combination of EGF (5 ng/mL) with leupeptin (10^−5 M) were also similarly treated. The number of the samples was 3.
An EGF treatment sample was continuously diluted five times to prepare a standard. […]
(§1) For both the Muc5AC and the β-actin, the expression quantities of the samples were relatively compared from the obtained Ct values and the standard straight line. […]
as §1

For “HAST: human airway-specific trypsin-like enzyme; propeptide moiety bound to trypsin-like protein moiety via a disulfide bond”, the Muc5AC gene expression was “promoted”.
